Assay results as given in ChEMBL document CHEMBL5137037, “Phage Display Selected Cyclic Peptide Inhibitors of Kallikrein-Related Peptidases 5 and 7 and Their In Vivo Delivery to the Skin” (J Med Chem, 2022).
pKi: −log10 of the molar value. Numbered stars: 1 amine (or outer) side, 2 acyl side, 3 side chain; on linkers, the order of the positions; unused ones are H or OH. Bridge positions count the residues as written; N and C are the ends. Peptide text beside a SMILES is read from it. * marks the point of attachment. Pyridine(2,6-diCH2) = c1cc(C[*:1])nc(C[*:2])c1; Pyrrolidin1yl(2S-Ac) = CC(=O)[C@@H]1CCCN1*; CH2COCH2 = O=C(C[*:1])C[*:2]

Legend:
Kallikrein-7 = Kallikrein-7 (Homo sapiens, UniProt P49862); test: Inhibition of C-terminal poly-His-tagged human recombinant KLK7 (30 to 253 residues) transfected in CHO cells assessed as inhibition constant using KHLY-pNA as fluorogenic substrate incubated for 30 mins by fluorescence plate reader assay; assay type: cell-based
Kallikrein-7, sequence (P49862 whole entry, the tested form may be a part): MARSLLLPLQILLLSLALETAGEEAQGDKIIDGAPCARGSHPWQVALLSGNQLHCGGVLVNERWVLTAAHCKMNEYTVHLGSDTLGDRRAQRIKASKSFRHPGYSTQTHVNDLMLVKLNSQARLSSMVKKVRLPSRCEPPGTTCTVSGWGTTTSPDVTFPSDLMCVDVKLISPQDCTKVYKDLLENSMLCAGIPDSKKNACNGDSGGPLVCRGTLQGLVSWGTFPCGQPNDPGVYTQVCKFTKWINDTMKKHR

Kallikrein-5 = molecular target: T1, Kallikrein-5 (Homo sapiens, UniProt Q9Y337); test: Inhibition of C-terminal poly-His-tagged human recombinant KLK5 (30 to 293 residues) transfected in CHO cells assessed as inhibition constant using Boc-VPR-AMC as fluorogenic substrate incubated for 30 mins by fluorescence plate reader assay; assay type: cell-based
T1 sequence (Q9Y337 whole entry): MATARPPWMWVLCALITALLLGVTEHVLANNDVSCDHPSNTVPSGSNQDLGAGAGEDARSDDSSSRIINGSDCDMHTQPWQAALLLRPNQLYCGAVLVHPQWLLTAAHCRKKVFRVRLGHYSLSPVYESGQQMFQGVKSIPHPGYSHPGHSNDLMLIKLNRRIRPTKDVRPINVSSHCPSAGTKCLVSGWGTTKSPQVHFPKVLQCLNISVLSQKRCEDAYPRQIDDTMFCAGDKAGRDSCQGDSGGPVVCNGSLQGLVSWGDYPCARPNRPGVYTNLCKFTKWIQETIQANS

Structure (SMILES)	pKi (Kallikrein-7)	further results
CC(C)C[C@@H]1NC(=O)[C@@H](NC(=O)[C@@H]2CCCN2)CSCc2cccc(n2)CSC[C@@H](C(=O)N[C@@H](CO)C(=O)O)NC(=O)[C@H](CO)NC(=O)[C@H](CC(C)C)NC(=O)[C@H](Cc2ccc(O)cc2)NC1=O (H-PCLYLSCS-OH; linker 2-7 via Pyridine(2,6-diCH2))	7.53	–
CC(C)C[C@@H]1NC(=O)[C@@H](NC(=O)[C@@H]2CCCN2)CSCc2cccc(n2)CSC[C@@H](C(=O)N[C@@H](CO)C(=O)O)NC(=O)[C@H](CO)NC(=O)[C@H](CCC(N)=O)NC(=O)[C@H](Cc2ccc(O)cc2)NC1=O (H-PCLYQSCS-OH; linker 2-7 via Pyridine(2,6-diCH2))	6.36	–
CC(C)[C@@H]1NC(=O)[C@H](CCC(N)=O)NC(=O)[C@H](CCCNC(=N)N)NC(=O)[C@H]([C@@H](C)O)NC(=O)[C@@H](NC(=O)CN)CSCc2cccc(n2)CSC[C@@H](C(=O)N[C@@H](CCC(N)=O)C(=O)N[C@@H](CCC(N)=O)C(=O)N[C@H](C(=O)N2CCC[C@H]2C(=O)N[C@@H](C)C(=O)N[C@H]2CSCc3cccc(n3)CSC[C@@H](C(=O)N[C@@H](CC(N)=O)C(=O)O)NC(=O)[C@H](C)NC(=O)[C@H](CO)NC(=O)[C@@H]3CCCN3C2=O)[C@@H](C)O)NC1=O (H-GCTRQVCQQTPACPSACN-OH; linker 2-7, 13-17 via Pyridine(2,6-diCH2))	–	pKi (Kallikrein-5): 8.15
CC(C)C[C@@H]1NC(=O)[C@H](Cc2ccc(O)cc2)NC(=O)[C@H](CC(C)C)NC(=O)[C@@H](N)CSCc2cccc(n2)CSC[C@@H](C(=O)N[C@@H](CO)C(=O)O)NC(=O)[C@H](C)NC1=O (H-CLYLACS-OH; linker 1-6 via Pyridine(2,6-diCH2))	6.70	–
CC(=O)[C@@H]1CCCN1C(=O)[C@@H]1CSCc2cccc(n2)CSC[C@H](NC(=O)[C@@H]2CCCN2)C(=O)N[C@@H](CC(C)C)C(=O)N[C@@H](Cc2ccc(O)cc2)C(=O)N[C@@H](CC(C)C)C(=O)N[C@@H](CO)C(=O)N1 (H-PCLYLSC-{Pyrrolidin1yl(2S-Ac)}; linker 2-7 via Pyridine(2,6-diCH2))	7.30	–
CSCC[C@H](NC(=O)[C@@H]1CSCc2cccc(n2)CSC[C@H](NC(=O)[C@@H](N)CCCNC(=N)N)C(=O)N[C@@H](CC(=O)O)C(=O)N[C@@H](CO)C(=O)N[C@@H](CO)C(=O)N[C@@H](CCC(N)=O)C(=O)N1)C(=O)N[C@@H](CCC(N)=O)C(=O)NCC(=O)N[C@@H](CCC(N)=O)C(=O)N[C@H]1CSCc2cccc(n2)CSC[C@@H](C(=O)N2CCC[C@H]2C(=O)O)NC(=O)[C@H](CO)NC(=O)[C@H](CCCNC(=N)N)NC(=O)[C@H](Cc2ccc(O)cc2)NC(=O)[C@H](CC(C)C)NC1=O (H-RCDSSQCMQGQCLYRSCP-OH; linker 2-7, 12-17 via Pyridine(2,6-diCH2))	7.03	–
CC(C)C[C@@H]1NC(=O)[C@@H](NC(=O)[C@@H]2CCCN2)CSCc2cccc(n2)CSC[C@@H](C(=O)N[C@@H](CO)C(=O)O)NC(=O)[C@H](CO)NC(=O)[C@H](CCCNC(=N)N)NC(=O)[C@H](Cc2ccc(O)cc2)NC1=O (H-PCLYRSCS-OH; linker 2-7 via Pyridine(2,6-diCH2))	7.28	–
CC(C)C[C@@H]1NC(=O)[C@@H](NC(=O)[C@@H]2CCCN2)CSCC(=O)CSC[C@@H](C(=O)N[C@@H](CO)C(=O)O)NC(=O)[C@H](CCCNC(=N)N)NC(=O)[C@H](CO)NC(=O)[C@H](CC(C)C)NC(=O)[C@H](Cc2ccc(O)cc2)NC1=O (racemic)	–	pKi (Kallikrein-7; cho): 7.05
CC(C)C[C@@H]1NC(=O)[C@H](Cc2ccc(O)cc2)NC(=O)[C@H](CC(C)C)NC(=O)[C@@H](NC(=O)[C@@H]2CCCN2)CSCc2cccc(n2)CSC[C@@H](C(=O)O)NC(=O)[C@H](C)NC1=O (mixture of isomers)	7.72	–
CC(C)C[C@@H]1NC(=O)[C@@H](NC(=O)C(N)CCC(N)=O)CSCc2cccc(n2)CSC[C@@H](C(=O)N[C@@H](CO)C(=O)O)NC(=O)[C@H](CO)NC(=O)[C@H](CC(C)C)NC(=O)[C@H](Cc2ccc(O)cc2)NC1=O (single isomer, unassigned)	7.92	–
CC[C@H](C)[C@@H]1NC(=O)[C@H](CCCNC(=N)N)NC(=O)[C@H](Cc2ccc(O)cc2)NC(=O)[C@H](CC(C)C)NC(=O)[C@@H](NC(=O)[C@H](CCC(N)=O)NC(=O)[C@@H]2CCCN2C(=O)[C@@H]2CSCc3cccc(n3)CSC[C@H](NC(=O)[C@@H](N)Cc3c[nH]cn3)C(=O)N[C@@H](CCCNC(=N)N)C(=O)N[C@@H](CCCCN)C(=O)NCC(=O)N[C@@H](CC(C)C)C(=O)N[C@@H](CC(=O)O)C(=O)N[C@@H](CCCNC(=N)N)C(=O)N2)CSCc2cccc(n2)CSC[C@@H](C(=O)N[C@@H](CO)C(N)=O)NC1=O (H-HCRKGLDRCPQCLYRICS-NH2; linker 2-9, 12-17 via Pyridine(2,6-diCH2))	7.18	–
CC[C@H](C)[C@@H]1NC(=O)[C@H](Cc2ccc(O)cc2)NC(=O)[C@H](CC(C)C)NC(=O)[C@@H](NC(=O)[C@@H](N)CCC(N)=O)CSCc2cccc(n2)CSC[C@@H](C(=O)N2CCC[C@H]2C(=O)N[C@@H](CO)C(=O)N[C@@H](C)C(=O)N[C@@H](C)C(=O)N[C@@H](CCCCN)C(=O)N[C@H]2CSCc3cccc(n3)CSC[C@@H](C(=O)N[C@@H](CCC(N)=O)C(N)=O)NC(=O)CNC(=O)[C@H](CC(N)=O)NC(=O)[C@H](CC(=O)O)NC2=O)NC(=O)[C@H](C)NC1=O (H-QCLYIACPSAAKCDNGCQ-NH2; linker 2-7, 13-17 via Pyridine(2,6-diCH2))	7.49	–
CSCC[C@@H]1NC(=O)[C@H](Cc2ccc(O)cc2)NC(=O)[C@H](CC(C)C)NC(=O)[C@@H](NC(=O)[C@@H]2CCCN2)CSCC(=O)CSC[C@@H](C(=O)N[C@@H](CO)C(=O)O)NC(=O)[C@H](CCCNC(=N)N)NC(=O)[C@H](C)NC1=O (H-PCLYMARCS-OH; linker 2-8 via CH2COCH2)	8.00	–
CC(C)C[C@@H]1NC(=O)[C@@H](NC(=O)C(N)CCCNC(=N)N)CSCc2cccc(n2)CSC[C@@H](C(=O)N[C@@H](CO)C(=O)O)NC(=O)[C@H](CO)NC(=O)[C@H](CC(C)C)NC(=O)[C@H](Cc2ccc(O)cc2)NC1=O (single isomer, unassigned)	8.06	–
CC(C)C[C@@H]1NC(=O)[C@@H](NC(=O)[C@@H]2CCCN2)CSCc2cccc(n2)CSC[C@@H](C(=O)N[C@@H](CO)C(=O)O)NC(=O)[C@H](CO)NC(=O)[C@H](CC(C)C)NC(=O)[C@H](Cc2ccccc2)NC1=O (H-PCLFLSCS-OH; linker 2-7 via Pyridine(2,6-diCH2))	6.66	–
CCCCCCCCCCCCCCCC(=O)NCCCC[C@H](NC(=O)[C@H](CCC(=O)O)NC(=O)[C@H](Cc1ccc(O)cc1)NC(=O)[C@H](CCC(=O)O)NC(=O)COCCOCCNC(=O)c1ccc(-c2c3ccc(=O)cc-3oc3cc(O)ccc23)c(C(=O)O)c1)C(=O)N[C@@H](CCC(=O)O)C(=O)N[C@@H](Cc1ccc(O)cc1)C(=O)N[C@@H](CCC(=O)O)C(=O)NCCOCCOCC(=O)NCCCC[C@H](NC(=O)CNC(=O)[C@@H]1CSCC(=O)CSC[C@H](NC(=O)[C@@H]2CCCN2)C(=O)N[C@@H](CC(C)C)C(=O)N[C@@H](Cc2ccc(O)cc2)C(=O)N[C@@H](CCCC)C(=O)N[C@@H](C)C(=O)N[C@@H](CCCNC(=N)N)C(=O)N1)C(=O)NCC(N)=O	8.15	–
CSCC[C@@H]1NC(=O)[C@H](Cc2ccc(O)cc2)NC(=O)[C@H](CC(C)C)NC(=O)[C@@H](NC(=O)[C@@H](N)CCC(N)=O)CSCC(=O)CSC[C@@H](C(=O)N[C@@H](CO)C(=O)N2CCC[C@H]2C(=O)N[C@H](C(=O)N[C@H]2CSCC(=O)CSC[C@@H](C(=O)N[C@@H](CCC(N)=O)C(=O)O)NC(=O)[C@H](Cc3ccc(O)cc3)NC(=O)[C@H](CCC(N)=O)NC(=O)[C@H](CCC(N)=O)NC(=O)[C@@H]3CCCN3C2=O)C(C)C)NC(=O)[C@H](CCCNC(=N)N)NC(=O)[C@H](C)NC1=O (H-QCLYMARCSPVCPQQYCQ-OH; linker 2-8, 12-17 via CH2COCH2)	8.05	–
CC(C)C[C@@H]1NC(=O)[C@@H](NC(=O)[C@@H]2CCCN2)CSCc2cccc(n2)CSC[C@@H](C(=O)N[C@@H](CO)C(=O)O)NC(=O)[C@H]([C@@H](C)O)NC(=O)[C@H](CC(C)C)NC(=O)[C@H](Cc2ccc(O)cc2)NC1=O (H-PCLYLTCS-OH; linker 2-7 via Pyridine(2,6-diCH2))	7.28	–
CC(C)C[C@@H]1NC(=O)[C@H](Cc2ccc(O)cc2)NC(=O)[C@H](CC(C)C)NC(=O)[C@@H](NC(=O)[C@@H]2CCCN2)CSCc2cccc(n2)CSC[C@@H](C(=O)N[C@@H](CO)C(=O)O)NC(=O)[C@H](C)NC1=O (H-PCLYLACS-OH; linker 2-7 via Pyridine(2,6-diCH2))	7.76	–
CC(C)C[C@@H]1NC(=O)[C@@H](NC(=O)[C@@H](N)Cc2ccccc2)CSCC(=O)CSC[C@@H](C(=O)N[C@@H](CCC(N)=O)C(=O)N2CCC[C@H]2C(=O)N2CCC[C@H]2C(=O)N[C@@H](CCC(=O)O)C(=O)N[C@@H](C)C(=O)N[C@H]2CSCC(=O)CSC[C@@H](C(=O)N[C@@H](CCC(=O)O)C(=O)O)NC(=O)[C@H](CCC(N)=O)NC(=O)[C@H](CO)NC(=O)[C@@H]3CCCN3C2=O)NC(=O)[C@H](Cc2c[nH]c3ccccc23)NC(=O)[C@@H]2CCCN2C(=O)[C@H](Cc2c[nH]c3ccccc23)NC1=O (H-FCLWPWCQPPEACPSQCE-OH; linker 2-7, 13-17 via CH2COCH2)	< 6.00	–
CC(C)C[C@@H]1NC(=O)[C@H](Cc2ccc(O)cc2)NC(=O)[C@H](CC(C)C)NC(=O)[C@@H](NC(=O)[C@@H]2CCCN2)CSCC(=O)CSC[C@@H](C(=O)N[C@@H](CO)C(=O)O)NC(=O)[C@H](CCC(N)=O)NC(=O)[C@H](C)NC1=O (H-PCLYLAQCS-OH; linker 2-8 via CH2COCH2)	7.44	–
